Results as given in patent publication US8067640B2, “Method for the separation of intermediates which may be used for the preparation of escitalopram” (H. Lundbeck A/S, priority 2002, dated 2011).

Test: Partition of compound A and compound B between aqueous layer and toluene layer in the presence of various acids
Conditions: 40° C., 1 hour
Description: Thus-obtained mixed solvent was separated into aqueous layer and toluene layer, and then the concentrations of compound A and B in each layer were measured. Partition coefficients Ka or Kb are calculated according to the following equation. Ka=(Concentration of the compound A in aqueous layer)/(Concentration of the compound A in toluene layer) Kb=(Concentration of the compound B in aqueous layer)/(Concentration of the compound B in toluene layer)

Partition coefficient Ka (3-Phenylpropionic acid): 5.67 | Partition coefficient Ka (4-Biphenylcarboxylic acid): 0.87 | Partition coefficient Ka (Benzoic acid): 18.4 | Partition coefficient Ka (Caproic acid): 5.04 | Partition coefficient Ka (Cyclohexanecarboxylic acid): 3.89 | Partition coefficient Ka (Isobutyric acid): 39.2 | Partition coefficient Ka (Isophthalic acid): 7.43 | Partition coefficient Ka (Isovaleric acid): 24.4 | Partition coefficient Ka (Maleic acid): 31.1 | Partition coefficient Ka (Malonic acid): 38.5 | Partition coefficient Ka (Oxalic acid): 1092 | Partition coefficient Ka (Phthalic acid): 20.8 | Partition coefficient Ka (Pivalic acid): 9.03 | Partition coefficient Ka (Salicylic acid): 13.0 | Partition coefficient Ka (Succinic acid): 24.1 | Partition coefficient Ka (Terephthalic acid): 16.8 | Partition coefficient Ka (acid: None): 0.17 | Partition coefficient Ka (m-Chlorobenzoic acid): 4.98 | Partition coefficient Ka (m-Methoxybenzoic acid): 9.23 | Partition coefficient Ka (m-Nitrobenzoic acid): 19.5 | Partition coefficient Ka (m-Toluic acid): 6.00 | Partition coefficient Ka (o-Chlorobenzoic acid): 22.8 | Partition coefficient Ka (o-Methoxybenzoic acid): 27.1 | Partition coefficient Ka (o-Nitrobenzoic acid): 30.7 | Partition coefficient Ka (o-Toluic acid): 9.11 | Partition coefficient Ka (p-Chlorobenzoic acid): 7.01 | Partition coefficient Ka (p-Ethylbenzoic acid): 2.28 | Partition coefficient Ka (p-Fluorobenzoic acid): 14.4 | Partition coefficient Ka (p-Hydroxybenzoic acid): 70.8 | Partition coefficient Ka (p-Methoxybenzoic acid): 12.3 | Partition coefficient Ka (p-Toluenesulfonic acid): 164 | Partition coefficient Ka (p-Toluic acid): 5.97
Structure (SMILES): CN(C)CCC[C@](O)(c1ccc(F)cc1)c1ccc(C#N)cc1CO [compound A, (S)-4-[4-dimethylamino-1-(4′-fluorophenyl)-1-hydroxybutyl]-3-hydroxymethylbenzonitrile]
